Experimental data from patent US20140323478A1, “SERINE/THREONINE KINASE INHIBITORS” (Afraxis Holdings, Inc., priority 2013, published 2014).
pIC50: −log10 of the molar value.

What follows are molecules tested against T1, human recombinant PAK1-KD protein (Homo sapiens, UniProt Q13153) (assay: PAK1-KD (kinase domain) IC50 Zlyte assay). Details: Z'-LYTE FRET peptide substrate (Ser/Thr19), 60-minute incubation at 22° C.
T1 construct: made in house; host or cells: Tini [sic] cells infected with recombinant baculovirus
T1 sequence (Q13153 270-521 limits assumed): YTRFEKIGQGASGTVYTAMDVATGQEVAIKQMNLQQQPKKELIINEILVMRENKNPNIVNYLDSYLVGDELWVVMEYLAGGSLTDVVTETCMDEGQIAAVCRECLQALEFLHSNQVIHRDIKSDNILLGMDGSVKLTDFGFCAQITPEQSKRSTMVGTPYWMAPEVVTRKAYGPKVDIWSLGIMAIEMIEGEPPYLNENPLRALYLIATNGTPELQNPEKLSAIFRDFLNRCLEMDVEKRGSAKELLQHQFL
Type: biochemical
Excerpt: Determination of the activity of PAK activity of a compound of formula I was accomplished using the PAK1 inhibition assay in Biological Example 1.
PAK1-KD (Kinase Domain) IC50 Zlyte Assay Protocol
Activity of human recombinant PAK1-KD protein may be assessed in vitro by assay of the phosphorylation of a FRET peptide substrate. Catalytically active human recombinant PAK1-KD protein is obtained by purification from Tini cells infected with a human PAK1-KD recombinant baculovirus expression vector.
The activity/inhibition of PAK1-KD was estimated by measuring the phosphorylation of a FRET peptide substrate (Ser/Thr19) labeled with Coumarin and Fluorescein using Z′-LYTE™ assay (Invitrogen). The peptide substrate is a consensus sequence (KKRNRRLSVA) based on various PAK substrates reported in the scientific literature. The 10 μL assay mixtures contained 50 mM HEPES (pH 7.5), 0.01% Brij-35, 10 mM MgCl2, 1 mM EGTA, 2 μM FRET peptide substrate, and 20 pM PAK1-KD. Incubations were carried out at 22° C. in black polypropylene 384-well plates (Corning Costar). […] Following the 60-minute incubation, the assay mixtures were quenched by the addition of 5 μL of Z′-LYTE™ development reagent, and 1 hour later the emissions of coumarin (445 nm) and fluorescein (520 nm) were determined after excitation at 400 nm using an Envision plate reader (Perkin Elmer). An emission ratio (445 nm/520 nm) was determined to quantify the degree of substrate phosphorylation.

Q: `CCn1c(=O)c(-c2ccccc2S(C)(=O)=O)cc2cnc(NCCC3CCN(C)CC3)nc21` [Compound I-1, 8-Ethyl-2-((2-(1-methylpiperidin-4-yl)ethyl)amino)-6-(2-(methylsulfonyl)phenyl)pyrido[2,3-d]pyrimidin-7(8H)-one] was tested. Which pIC50 did it give?
A: < 5.35

Q: How did the pIC50 turn out when `CCN1CCC(CCNc2ncc3cc(-c4cccc(S(C)(=O)=O)c4)c(=O)n(CC)c3n2)CC1` [Compound I-2, 8-ethyl-2-[2-(1-ethyl-4-piperidyl)ethylamino]-6-(3-methylsulfonylphenyl)pyrido[2,3-d]pyrimidin-7-one] was run?
A: 5.77

Q: `CCNc1ncc2cc(-c3cccc(S(C)(=O)=O)c3)c(=O)n(CC)c2n1` [Compound I-3, 8-Ethyl-2-(ethylamino)-6-(3-methylsulfonylphenyl)pyrido[2,3-d]pyrimidin-7-one] was tested. Which pIC50 did it give?
A: < 5.35

Q: `CCn1c(=O)c(-c2cccc(S(C)(=O)=O)c2)cc2cnc(NCCC3CCN(C)CC3)nc21` [Compound I-4, 8-ethyl-2-[2-(1-methyl-4-piperidyl)ethylamino]-6-(3-methylsulfonylphenyl)pyrido[2,3-d]pyrimidin-7-one] was tested. Which pIC50 did it give?
A: 5.85

Q: With `CCN1CCC(CCNc2ncc3cc(-c4ccccc4S(C)(=O)=O)c(=O)n(CC)c3n2)CC1` [Compound I-5, 8-ethyl-2-[2-(1-ethyl-4-piperidyl)ethylamino]-6-(2-methylsulfonylphenyl)pyrido[2,3-d]pyrimidin-7-one] as the molecule, how does the pIC50 read?
A: < 5.35

Q: `CCN1CCC(CCNc2ncc3cc(-c4ccc(S(C)(=O)=O)cc4)c(=O)n(CC)c3n2)CC1` [Compound I-6, 8-ethyl-2-[2-(1-ethyl-4-piperidyl)ethylamino]-6-(4-methylsulfonylphenyl)pyrido[2,3-d]pyrimidin-7-one] was tested. Which pIC50 did it give?
A: < 5.35

Q: `CCn1c(=O)c(-c2ccc(S(C)(=O)=O)cc2)cc2cnc(NCCC3CCN(C)CC3)nc21` [Compound I-7, 8-ethyl-2-[2-(1-methyl-4-piperidyl)ethylamino]-6-(4-methylsulfonylphenyl)pyrido[2,3-d]pyrimidin-7-one] was tested. Which pIC50 did it give?
A: < 5.35

Q: `CCn1c(=O)c(-c2ccc([S+](C)[O-])cc2)cc2cnc(NCCC3CCN(C)CC3)nc21` (centres unmarked) [Compound I-8, 8-ethyl-2-[2-(1-methyl-4-piperidyl)ethylamino]-6-(4-methylsulfinylphenyl)pyrido[2,3-d]pyrimidin-7-one] was tested. Which pIC50 did it give?
A: < 5.35

Q: `CCn1c(=O)c(-c2ccc(S(=O)(=O)C3CC3)cc2)cc2cnc(NCCC3CCN(C)CC3)nc21` [Compound I-9, 6-(4-cyclopropylsulfonylphenyl)-8-ethyl-2-[2-(1-methyl-4-piperidyl)ethylamino]pyrido[2,3-d]pyrimidin-7-one] was tested. Which pIC50 did it give?
A: 5.52

Q: How did the pIC50 turn out when `CCn1c(=O)c(-c2ccc(S(C)(=O)=O)cc2)cc2cnc(N[C@H]3[C@@H]4CNC[C@@H]43)nc21` [Compound I-10, 2-[[(1R,5S)-3-azabicyclo[3.1.0]hexan-6-yl]amino]-8-ethyl-6-(4-methylsulfonylphenyl)pyrido[2,3-d]pyrimidin-7-one] was run?
A: < 5.35

Q: How did the pIC50 turn out when `CCn1c(=O)c(-c2ccc(S(C)(=O)=O)nc2)cc2cnc(NCCC3CCN(C)CC3)nc21` [Compound I-11, 8-ethyl-2-[2-(1-methyl-4-piperidyl)ethylamino]-6-(6-methylsulfonyl-3-pyridyl)pyrido[2,3-d]pyrimidin-7-one] was run?
A: 5.46

Q: `CCn1c(=O)c(-c2ccc([S+]([O-])C3CC3)cc2)cc2cnc(NCCC3CCN(C)CC3)nc21` (centres unmarked) [Compound I-12, 6-(4-cyclopropylsulfinylphenyl)-8-ethyl-2-[2-(1-methyl-4-piperidyl)ethylamino]pyrido[2,3-d]pyrimidin-7-one] was tested. Which pIC50 did it give?
A: 6.06

Q: `CCn1c(=O)c(-c2ccc(S(=O)(=O)C3CC3)cc2Cl)cc2cnc(NCCC3CCN(C)CC3)nc21` [Compound I-13, 6-(2-chloro-4-cyclopropylsulfonyl-phenyl)-8-ethyl-2-[2-(1-methyl-4-piperidyl)ethylamino]pyrido[2,3-d]pyrimidin-7-one] was tested. Which pIC50 did it give?
A: 7.17

Q: How did the pIC50 turn out when `CCNc1ncc2cc(-c3ccc(S(C)(=O)=O)cc3Cl)c(=O)n(C[C@H]3CC[C@H](N)CC3)c2n1` [Compound I-14, 8-(((1R,4R)-4-aminocyclohexyl)methyl)-6-(2-chloro-4-(methylsulfonyl)phenyl)-2-(ethylamino)pyrido[2,3-d]pyrimidin-7(8H)-one] was run?
A: 6.76
